Source: US20160158246A1, “METHOD OF TREATING DIFFUSE LARGE B-CELL LYMPHOMA (DLBCL) USING A BET-BROMODOMAIN INHIBITOR” (ONCOETHIX GMBH, priority 2013, published 2016)

Key:
IL10 and IL4 production = assay: IL10 and IL4 production; assay type: cell-based; conditions: after 24 hours treatment
[1] = test system: NFKB target genes (IRF4, TNFAIP3 and BIRC3); assay: PCR of NFKB target genes; assay type: cell-based
[2] = test system: pSTAT3 and p50 (NFKB 1) in ABC cell lines; assay: immunoblotting and immunohistochemistry; assay type: cell-based
[3] = test system: DLBCL cell lines (SU-DHL-6, SU-DHL-2); assay: gene expression profiling (Illumina HumanHT-12 Expression BeadChips); assay type: cell-based
Method: Baseline gene expression profiles (GEP) were obtained in 38 lymphoma cell lines, including 22 DLBCL with Illumina HumanHT-12 v4 Expression BeadChip. GEP before and after OTX015 treatment were done in […] DLBCL cell lines, too. The relationship between GEP and IC50 values was assessed by Pearson correlation. LIMMA was used for differential expression analysis, followed by Benjamini-Hochberg multiple test correction, and GSEA to test for enrichment of functionally-related genes.
Cell lines: 22 diffuse large B-cell lymphoma (DLBCL), 4 mantle cell lymphomas, 3 multiple myelomas, 3 splenic marginal zone lymphoma and 1 prolymphocytic leukemia. Anti-proliferative of OTX015 (OncoEthix SA, Switzerland) was assessed by MTT and its cytotoxic activity by Annexin V staining and gene expression profiling (GEP) with Illumina HumanHT-12 Expression BeadChips. Data mining was done with LIMMA, GSEA, Metacore.
We performed GEP on 2 cell lines (SU-DHL-6, SU-DHL-2), treated with DMSO or OTX015 (500 nM) for 1, 2, 4, 8 or 12 hours.

mTORC1 = mTORC1 (Homo sapiens, UniProt P42345); conditions: cited from earlier work
mTORC2 = mTORC2 (Homo sapiens, UniProt P42345); conditions: cited from earlier work
[4] = test system: pAktS473, pGSK3βS9, pS6, pMAPK, pAktT308; conditions: cited from earlier work
[5] = test system: Lyn, Syk, PKA, casein kinase I, ERK1, ERK2 and p38 kinase; conditions: cited from earlier work
[6] = molecular target: Bruton's tyrosine kinase (BTK) (Homo sapiens, UniProt Q06187); conditions: in intact cells and in cell-free systems; cited from earlier work
Chain of Bruton's tyrosine kinase (BTK) (Q06187 whole entry, species assumed): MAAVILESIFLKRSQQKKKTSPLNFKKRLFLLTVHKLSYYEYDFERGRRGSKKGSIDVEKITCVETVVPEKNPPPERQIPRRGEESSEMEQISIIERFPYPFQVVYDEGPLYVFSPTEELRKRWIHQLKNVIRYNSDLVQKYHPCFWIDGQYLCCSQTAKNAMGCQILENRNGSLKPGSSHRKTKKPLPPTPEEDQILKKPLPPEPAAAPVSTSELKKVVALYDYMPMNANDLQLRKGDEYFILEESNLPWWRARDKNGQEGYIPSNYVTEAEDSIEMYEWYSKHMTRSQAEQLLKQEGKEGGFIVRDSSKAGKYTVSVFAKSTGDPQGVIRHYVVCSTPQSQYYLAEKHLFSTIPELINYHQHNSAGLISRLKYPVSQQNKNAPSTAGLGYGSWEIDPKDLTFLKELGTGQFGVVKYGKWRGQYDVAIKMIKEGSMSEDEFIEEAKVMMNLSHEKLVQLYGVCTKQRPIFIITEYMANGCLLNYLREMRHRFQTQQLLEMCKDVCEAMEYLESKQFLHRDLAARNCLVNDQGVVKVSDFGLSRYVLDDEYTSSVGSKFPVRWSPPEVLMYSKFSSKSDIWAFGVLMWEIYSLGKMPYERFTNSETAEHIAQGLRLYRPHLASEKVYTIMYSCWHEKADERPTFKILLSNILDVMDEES

PKC = conditions: cited from earlier work
BTK and PKCβII = BTK and PKCβII (Homo sapiens, UniProt Q06187); conditions: in intact cells and in cell-free systems; cited from earlier work
Chain of BTK and PKCβII (Q06187 whole entry, species assumed): as above

[7] = SU-DHL-6, SU-DHL-2, 500 nM for 1, 2, 4, 8 or 12 hours

With `Cc1sc2c(c1C)C(c1ccc(Cl)cc1)=N[C@@H](CC(=O)Nc1ccc(O)cc1)c1nnc(C)n1-2` [Compound (1-1), 2-[(6S)-4-(4-chlorophenyl)-2,3,9-trimethyl-6H-thienol[3,2-f]-[1,2,4]triazolo[4,3-a][1,4]diazepin-6-yl]-N-(4-hydroxyphenyl)acetamide dihydrate] the “IL10 and IL4 production” value (IL10 and IL4 production) was “IL10 and IL4 production was reduced”, the “NFKB target gene expression (PCR)” value [1] was “NFKB target genes (IRF4, TNFAIP3 and BIRC3) were also downregulated” and the “nuclear localization of p50 (NFKB 1)” value [2] was “reduction in nuclear localization of p50 (NFKB 1)”. For the same molecule, the “transcriptionally active pSTAT3” value ([2]; 2 ABC cell lines) was “reduction of transcriptionally active pSTAT3”, the “MYD88/JAK/STAT pathway expression (additional GEP)” value ([3]; Example 7) was “down-regulation of the MYD88/JAK/STAT pathway” and the “genes downregulated (GEP), members of the NFKB, TLR and JAK/STAT pathways” value [3, 7] was “downregulated MYD88, IRAK1, TLR6, IL6, STAT3, and TNFRSF17”. The “most frequently downregulated gene (GEP)” value [3, 7] was “MYC was the most frequently downregulated gene” and the “most upregulated genes (GEP)” value [3, 7] was “Most upregulated genes were histones”.

For `COc1cccc2cc(-c3nc([C@H]4CC[C@H](C(=O)O)CC4)n4ncnc(N)c34)[nH]c12` [OSI-027], the IC50 (mTORC1) is given as 22 nM.

For `COc1ccc(COc2cc3oc(=O)c4cc(C(C)O)ccc4c3cc2OC)cc1` (stereo not shown) [Palomid 529], the “mTORC1 complex inhibition” value (mTORC1) is listed as “inhibits both the mTORC1 and mTORC2 complexes”, the “mTORC2 complex inhibition” value (mTORC2) is listed as “inhibits both the mTORC1 and mTORC2 complexes” and the “effect on phosphorylation markers” value [4] is listed as “reduces phosphorylation of pAktS473, pGSK3βS9, and pS6 but neither pMAPK nor pAktT308”.

In the case of `CC1=C(O)C(=O)[C@@H]2O[C@@H]2C1=O` [Terreic acid, (1R,6S)-3-Hydroxy-4-methyl-7-oxabicyclo[4.1.0]hept-3-ene-2,5-dione], the “effect on activities of Lyn, Syk, PKA, casein kinase I, ERK1, ERK2 and p38 kinase” value [5] is listed as “little or no effect”, the “catalytic activity of BTK” value [6] is listed as “Inhibits the catalytic activity of BTK” and the “activity of PKC” value (PKC) is listed as “without affecting the activity of PKC”. The “interaction between BTK and PKCβII” value (BTK and PKCβII) was “Inhibits the catalytic activity of BTK as well as the interaction between BTK and PKCβII”.
